From US8686044B2, “Amide derivative, pest control agent containing the amide derivative, and use of the amide derivative” (Mitsui Chemicals Agro, Inc., priority 2008, dated 2014) come the findings set out here.

What all share (assay type): in vivo
The subject of assay [1] is Blattella germanica. The assay can be described thus: Pesticidal test against Blattella germanica (petri dish dry film). As to conditions: 24 h, concentration 100 ppm, female adults, examined after 1 day, 25° C., read-out: pesticidal rate. Put shortly:
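Acetone solution of test compound at a predetermined concentration dried as a film in a 9 cm petri dish; female adult cockroaches released onto it and kept at 25° C. Living and dead counted after 1 day; five insects per group, two replicates.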

For assay [2], the system named is Coptotermes formosanus. The experiment in a line: Pesticidal test against Coptotermes formosanus (treated filter paper). As to conditions: 120 h, concentration 30 ppm, examined after 5 days of treatment, 28° C., read-out: pesticidal rate. How it is done:
Pesticidal Test against Coptotermes formosanus
20 μl of an acetone solution in which a test compound had been prepared at a predetermined concentration was added dropwise to the filter paper having a diameter of […] included in a polypropylene cup, and air-dried, and then 20 μl of water was added thereto. Coptotermes formosanus was released and the cup was capped. They were left to stand in a thermostatic chamber at 28° C., and the numbers of the living pests and the dead pests were examined after 5 days of treatment. The test was carried out with ten larvae per group in two replicates.

In assay [3] the test system is Ctenocephalides Felis. The assay can be described thus: Insecticidal test for Ctenocephalides felis, Test Example 3 (dry film in glass tube, 0.96 ml, Table A5). The conditions noted are these: adults of Ctenocephalides felis, after 24 hours of exposure, in triplicate. The method, then:
Insecticidal Test for Ctenocephalides felis
0.96 ml of a solution of acetone, the active ingredient, prepared to the prescribed concentration was added dropwise to a glass tube with a flat bottom (internal diameter: 3.6 cm, height: 12 cm), and the solvent was evaporated at room temperature to form a dry film of the agent on the bottom surface. About 10 adults of Ctenocephalides felis per glass tube were added, and they were contact-exposed to the test compound. After 24 hours of the exposure, the conditions of the adults were examined and classified into “alive” and “dead (including a moribund condition)” to determine the death rate was determined (in triplicate).
As the comparative compounds, the following Compounds (D) and (E) disclosed in WO2009/080203, and fipronil were used.

Assay [4] has as its system Laodelphax striatellus. The experiment in a line: Pesticidal test against Laodelphax striatellus (rice seedling spray). The conditions noted are these: 144 h, concentration 100 ppm, 3-stage larvae, examined after 6 days, 25° C., read-out: pesticidal rate. Put shortly:
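Rice seedlings sprayed with 2.5 ml acetone solution of compound at a predetermined concentration, air-dried, then infested with third-stage Laodelphax striatellus larvae in capped water-containing tubes at 25 °C. Living and dead insects counted after 6 days; ten larvae per group, two replicates.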

In assay [5] the test system is Plutella xylostella. The assay can be described thus: Pesticidal test against Plutella xylostella (cabbage leaf dip). The conditions noted are these: foliar, 144 h, concentration 1 ppm, 2-stage larvae, examined after 6 days, 25° C., read-out: pesticidal rate. Put shortly: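 Cabbage leaf pieces dipped 30 s in test solution at a predetermined concentration, air-dried, then offered to 2nd-instar larvae, five per group in duplicate. Held at 25° C; living and dead larvae counted after 6 days.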

The test system of assay [6] is Ctenocephalides Felis. The assay can be described thus: Insecticidal test for Ctenocephalides felis, Test Example 1 (dry film in glass tube, 0.5 ml, Table A4). As to conditions: adults; for pest or weed control at 0.1 µg/mL: Ctenocephalides felis, concentration 0.1 μg/ml, after 24 hours of the exposure, in triplicate, read-out: death rate. How it is done:
Insecticidal Test for Ctenocephalides Felis
0.5 ml of a solution of acetone, the active ingredient, prepared to the prescribed concentration was added dropwise to a glass tube with a flat bottom (internal diameter: 2.6 cm, bottom area: 5.3 cm^2, height: 12 cm), and the solvent was evaporated at room temperature to form a dry film of the agent on the bottom surface. About 10 adults of Ctenocephalides Felis per glass tube were added, and the adults were contact-exposed to the test compound. After 24 hours of the exposure, the conditions of the adults were examined and classified into “alive” and “dead (including a moribund condition)” to determine the death rate (in triplicate).
As the comparative compounds, the following Compounds (A), (B), and (C) disclosed in WO2009/080203, and fipronil were used.

In assay [7] the test system is Musca domestica. The experiment in a line: Pesticidal test against Musca domestica (petri dish dry film). As to conditions: 24 h, concentration 100 ppm, female adults, examined after 1 day, 25° C., read-out: pesticidal rate. Put shortly: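 Dry film from 1 ml acetone solution of compound at a predetermined concentration, air-dried in a 9 cm petri dish; female adult flies released and dish capped. Held at 25° C; living and dead counted after 1 day. Five insects per group, two replicates.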

In assay [8] the test system is Rhipicephalus sanguineus. The assay can be described thus: Insecticidal test for Rhipicephalus sanguineus (treated glass petri dish, Table A6). The conditions noted are these: adults of Rhipicephalus sanguineus, 18 hour exposure, examined after 48 hours, in single.
In assay [9] the test system is Adoxophyes honmai. The assay can be described thus: Pesticidal test against Adoxophyes honmai (artificial feed dip). As to conditions: 144 h, concentration 1 ppm, 2-stage larvae, examined after 6 days, 25° C., read-out: pesticidal rate. Put shortly: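 Thin artificial feed slices dipped 30 s in test solution at a predetermined concentration, air-dried, then offered to 2nd-stage larvae. Kept at 25° C; live and dead larvae counted after 6 days. Five larvae per group, two replicates.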

For the compound `CN(C(=O)c1ccccc1)c1cccc(C(=O)Nc2c(Br)cc(C(F)(C(F)(F)F)C(F)(F)F)cc2C(F)(F)F)c1F` [7-1574, N-(2-bromo-4-(perfluoropropan-2-yl)-6-(trifluoromethyl)phenyl)-2-fluoro-3-(N-methylbenzamide)benzamide], the pest or weed control at 100 ppm in [1], in assay [4] and in assay [7] was at least 70% each time. Moreover, the pest or weed control at 30 ppm in assay [2] was at least 70%. Also, the death rate in [3] (0.03 μg/ml) came to 72.0%; in assay [3] (0.1 μg/ml) it was 98.9%; in assay [8] (0.0431 mg/m^2) it was 10.0%; in assay [8] (0.0861 mg/m^2), 100.0%; in assay [8] (0.172 mg/m^2), 100.0%. The pest or weed control at 1 ppm in [5] and in assay [9] was at least 70% each time. Besides, in [6], the pest or weed control at 0.1 µg/mL came out at 100%. The “speed of effect as compared with the fipronil” value in [6] (compared with fipronil) is “immediate effect”.
As for `CN(C(=O)c1ccc(F)cc1)c1cccc(C(=O)Nc2c(I)cc(C(F)(C(F)(F)F)C(F)(F)F)cc2C(F)(F)F)c1F` [7-1733, 2-fluoro-3-(4-fluoro-N-methylbenzamide)-N-(2-iodo-4-(perfluoropropan-2-yl)-6-(trifluoromethyl)phenyl)benzamide], the pest or weed control at 100 ppm in assay [1], in assay [4] and in [7] was at least 70% throughout. The pest or weed control at 30 ppm in assay [2] is at least 70%. For the same compound, the death rate in [3] (0.03 μg/ml) is recorded as 21.1%; in assay [3] (0.1 μg/ml), 91.6%; in assay [8] (0.0431 mg/m^2) it was 0.0%; in assay [8] (0.0861 mg/m^2), 80.0%; in assay [8] (0.172 mg/m^2), 100.0%. In addition, the pest or weed control at 1 ppm in [5] and in [9] was at least 70% throughout. The pest or weed control at 0.1 µg/mL in [6] turned out to be 100%.
